Results taken from ChEMBL document CHEMBL1949642 (Bioorg Med Chem Lett, 2012).

What was measured:
[1] = Lipophilicity, log D of the compound at pH 7.4; settings: buffer
[2] = target: C-C chemokine receptor type 5 (Homo sapiens, UniProt P51681); test: Displacement of [125I]MIP-1alpha from human recombinant CCR5 expressed in CHO cells; assay type: cell-based
[3] = Intrinsic clearance in human liver microsomes
[4] = target: Voltage-gated inwardly rectifying potassium channel KCNH2 (Homo sapiens, UniProt Q12809); test: Displacement of 3,7-Bis[2-(4-nitro[3,5-3H]phenyl)ethyl]-3,7-diazabicyclo[3.3.1]nonane from human ERG expressed in HEK cells after 3 hrs
Voltage-gated inwardly rectifying potassium channel KCNH2, sequence (Q12809 whole entry): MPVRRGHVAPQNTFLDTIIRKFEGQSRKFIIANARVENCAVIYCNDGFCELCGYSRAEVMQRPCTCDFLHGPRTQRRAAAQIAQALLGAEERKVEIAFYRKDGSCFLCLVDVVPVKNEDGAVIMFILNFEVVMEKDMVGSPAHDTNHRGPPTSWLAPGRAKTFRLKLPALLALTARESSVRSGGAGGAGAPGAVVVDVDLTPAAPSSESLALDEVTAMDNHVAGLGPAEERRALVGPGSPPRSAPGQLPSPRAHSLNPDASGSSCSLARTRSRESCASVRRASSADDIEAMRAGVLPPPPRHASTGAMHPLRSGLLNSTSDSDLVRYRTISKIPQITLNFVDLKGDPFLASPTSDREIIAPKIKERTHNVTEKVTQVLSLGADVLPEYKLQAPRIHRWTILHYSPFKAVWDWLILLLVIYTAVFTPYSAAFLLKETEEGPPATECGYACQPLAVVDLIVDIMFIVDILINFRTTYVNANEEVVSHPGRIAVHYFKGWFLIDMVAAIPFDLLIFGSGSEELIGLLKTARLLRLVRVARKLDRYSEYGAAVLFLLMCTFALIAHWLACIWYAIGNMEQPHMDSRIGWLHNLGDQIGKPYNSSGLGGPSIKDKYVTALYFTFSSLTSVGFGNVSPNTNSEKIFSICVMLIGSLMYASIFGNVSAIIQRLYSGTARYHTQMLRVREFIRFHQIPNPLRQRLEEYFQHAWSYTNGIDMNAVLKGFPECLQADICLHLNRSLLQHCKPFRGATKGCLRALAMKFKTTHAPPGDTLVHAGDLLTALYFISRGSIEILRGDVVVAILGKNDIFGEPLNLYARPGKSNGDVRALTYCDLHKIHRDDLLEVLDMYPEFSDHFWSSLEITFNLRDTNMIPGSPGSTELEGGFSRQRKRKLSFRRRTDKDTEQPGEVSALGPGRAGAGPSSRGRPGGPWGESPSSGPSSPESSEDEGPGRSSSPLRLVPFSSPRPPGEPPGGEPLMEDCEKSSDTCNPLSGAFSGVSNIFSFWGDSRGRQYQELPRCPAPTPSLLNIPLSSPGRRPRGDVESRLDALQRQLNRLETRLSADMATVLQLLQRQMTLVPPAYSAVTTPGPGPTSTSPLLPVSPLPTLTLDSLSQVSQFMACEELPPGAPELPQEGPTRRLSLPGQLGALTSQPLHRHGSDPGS

[5] = Half life in female dog at 1 to 2 mg/kg, iv; assay type: ADME, organism-based, Canis lupus familiaris; set-up: dose 1-2 mg/kg, route intravenous; settings: in vivo
[6] = Oral bioavailability in rat at 2 to 5 mg/kg; assay type: ADME, organism-based; settings: in vivo
[7] = Volume of distribution at steady state in female dog at 1 to 2 mg/kg, iv; assay type: ADME, organism-based, Canis lupus familiaris; set-up: dose 1-2 mg/kg, route intravenous; settings: in vivo, read-out: Vdss
[8] = Oral bioavailability in female dog at 2 to 5 mg/kg; assay type: ADME, organism-based, Canis lupus familiaris; settings: in vivo
[9] = Volume of distribution at steady state in male dog at 1 to 2 mg/kg, iv; assay type: ADME, organism-based, Canis lupus familiaris; set-up: dose 1-2 mg/kg, route intravenous; settings: in vivo, read-out: Vdss
[10] = Clearance in male dog at 1 to 2 mg/kg, iv; assay type: ADME, organism-based, Canis lupus familiaris; set-up: dose 1-2 mg/kg, route intravenous; settings: in vivo
[11] = Oral bioavailability in male dog at 2 to 5 mg/kg; assay type: ADME, organism-based, Canis lupus familiaris; settings: in vivo
[12] = Clearance in female dog at 1 to 2 mg/kg, iv; assay type: ADME, organism-based, Canis lupus familiaris; set-up: dose 1-2 mg/kg, route intravenous; settings: in vivo
[13] = Half life in male dog at 1 to 2 mg/kg, iv; assay type: ADME, organism-based, Canis lupus familiaris; set-up: dose 1-2 mg/kg, route intravenous; settings: in vivo
[14] = Clearance in rat at 1 to 2 mg/kg, iv; assay type: ADME, organism-based; set-up: dose 1-2 mg/kg, route intravenous; settings: in vivo
[15] = Half life in rat at 1 to 2 mg/kg, iv; assay type: ADME, organism-based; set-up: dose 1-2 mg/kg, route intravenous; settings: in vivo
[16] = Volume of distribution at steady state in rat at 1 to 2 mg/kg, iv; assay type: ADME, organism-based; set-up: dose 1-2 mg/kg, route intravenous; settings: in vivo, read-out: Vdss

C-C chemokine receptor type 5, sequence (P51681 whole entry): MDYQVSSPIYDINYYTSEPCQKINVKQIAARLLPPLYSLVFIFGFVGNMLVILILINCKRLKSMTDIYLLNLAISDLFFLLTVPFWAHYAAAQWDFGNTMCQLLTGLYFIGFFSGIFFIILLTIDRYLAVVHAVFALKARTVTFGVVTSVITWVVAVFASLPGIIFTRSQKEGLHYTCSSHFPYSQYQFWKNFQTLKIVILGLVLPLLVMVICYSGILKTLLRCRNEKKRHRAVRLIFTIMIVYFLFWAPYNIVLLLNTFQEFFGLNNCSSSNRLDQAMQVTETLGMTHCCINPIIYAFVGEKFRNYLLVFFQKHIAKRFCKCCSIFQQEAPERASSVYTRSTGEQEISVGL

logD [1] | IC50 [2] | microsomal CLint ([3]; liver microsomes) | SMILES | IC50 [4] | also measured
0.9 | – | – | CCN(C(=O)Cc1ccc(S(C)(=O)=O)cc1)C1CCN(CCC(c2ccccc2)N2CCN(C)CC2)CC1 (racemic) | – | –
1.5 | 0.44 nM | 104 µL/min/mg | CCN(C(=O)Cc1ccc(S(C)(=O)=O)cc1)C1CCN(CC[C@@H](c2cccc(C)c2)C2CCN(S(C)(=O)=O)CC2)CC1 | – | –
0.6 | 794 nM | – | CCN(C(=O)Cc1ccc(S(C)(=O)=O)cc1)C1CCN(CC[C@@H](c2cccc(S(C)(=O)=O)c2)C2CCN(S(C)(=O)=O)CC2)CC1 | – | –
3.4 | < 0.1 nM | 28 µL/min/mg | CCN(C(=O)Cc1ccc(S(C)(=O)=O)cc1)C1CCN(CC[C@@H](c2ccccc2)C2CCN(S(=O)(=O)C(F)(F)F)CC2)CC1 | 1200 nM | –
0.8 | 39 nM | < 3 µL/min/mg | CCN(C(=O)Cc1ccc(S(C)(=O)=O)cc1)C1CCN(CCC(c2ccccc2)N2CCN(S(C)(=O)=O)CC2)CC1 (racemic) | – | –
1.9 | 3.5 nM | 17 µL/min/mg | CCN(C(=O)Cc1ccc(S(C)(=O)=O)cc1)C1CCN(CC[C@@H](c2cccc(C(F)(F)F)c2)C2CCN(S(C)(=O)=O)CC2)CC1 | 7900 nM | –
1 | 15 nM | 52 µL/min/mg | CCN(C(=O)Cc1ccc(S(C)(=O)=O)cc1)C1CCN(CCC(c2ccccc2)N2CCN(S(=O)(=O)CC)CC2)CC1 (racemic) | – | –
1.6 | – | 22 µL/min/mg | CCN(C(=O)Cc1ccc(S(C)(=O)=O)cc1)C1CCN(CC[C@@H](c2cc(F)cc(Cl)c2)C2CCN(S(C)(=O)=O)CC2)CC1 | – | –
– | – | 18 µL/min/mg | CCN(C(=O)Cc1ccc(S(C)(=O)=O)cc1)C1CCN(CC[C@@H](c2cccc(F)c2)C2CCN(S(C)(=O)=O)CC2)CC1 | – | –
3.2 | 3.1 nM | 22 µL/min/mg | CCN(C(=O)Cc1ccc(S(C)(=O)=O)cc1)C1CCN(CCC(c2ccccc2)N2CCN(c3cccc(F)c3)CC2)CC1 (racemic) | 3200 nM | –
1.9 | < 0.1 nM | > 150 µL/min/mg | CCN(C(=O)Cc1ccc(S(C)(=O)=O)cc1)C1CCN(CC[C@@H](c2cc(C)cc(C)c2)C2CCN(S(C)(=O)=O)CC2)CC1 | – | –
1.2 | 5 nM | 45 µL/min/mg | CCN(C(=O)Cc1ccc(S(C)(=O)=O)cc1)C1CCN(CC[C@@H](c2cccc(OC)c2)C2CCN(S(C)(=O)=O)CC2)CC1 | 32000 nM | –
3.7 | 162 nM | – | CCN(C(=O)Cc1ccc(S(C)(=O)=O)cc1)C1CCN(CCC(c2ccccc2)N2CCC(Cc3ccccc3)CC2)CC1 (racemic) | – | –
1.6 | 2.4 nM | 61 µL/min/mg | CCN(C(=O)Cc1ccc(S(C)(=O)=O)cc1)C1CCN(CCC(c2ccccc2)C2CCN(S(=O)(=O)CC)CC2)CC1 (racemic) | – | –
1.2 | 3.7 nM | – | CCN(C(=O)Cc1ccc(S(C)(=O)=O)cc1)C1CCN(CC[C@@H](c2cc(F)cc(F)c2)N2CCN(S(C)(=O)=O)CC2)CC1 | > 32000 nM | half-life [5]: 4.7 h; microsomal CLint ([3]; microsomes): 8 µL/min/mg; bioavailability [6]: 7.3%; Vd [7]: 2.2 L/kg; bioavailability [8]: 22%; Vd [9]: 3.2 L/kg; clearance [10]: 12 mL/min/kg; bioavailability [11]: 15%; clearance [12]: 7.5 mL/min/kg; half-life [13]: 8.3 h; clearance [14]: 71 mL/min/kg; half-life [15]: 2.4 h; Vd [16]: 7.7 L/kg
